In brackets after ≈: the same amount, converted by molar mass.
What was measured:
KB = experiment: Cytotoxicity against human KB cells assessed as reduction in cell viability; format: cell-based
L6 = experiment: Cytotoxicity against rat L6 cells assessed as reduction in cell viability; format: cell-based
Trichomonas vaginalis [1] = experiment: Antiprotozoal activity against Trichomonas vaginalis assessed as reduction in […] at 250 ug/ml at relative to control; format: functional
Leishmania donovani [2] = experiment: […] activity against Leishmania donovani; format: functional, organism-based
[3] = tested on: Trypanosoma brucei rhodesiense; experiment: Antitrypanosomal activity against Trypanosoma brucei rhodesiense; format: functional, organism-based
Trypanosoma cruzi [4] = experiment: Antitrypanosomal activity against Trypanosoma cruzi; format: functional, organism-based
Trypanosoma cruzi [5] = experiment: Antitrypanosomal activity against Trypanosoma cruzi after 48 hrs by [3H]-hypoxanthine incorporation assay; format: functional, organism-based
Leishmania donovani [6] = experiment: […] activity against Leishmania donovani after 48 hrs by [3H]-hypoxanthine incorporation assay; format: functional, organism-based
Trichomonas vaginalis [7] = experiment: Antitrichomonal activity against Trichomonas vaginalis assessed as reduction in parasite viability at 125 ug/ml relative to control; format: functional
Entamoeba histolytica = experiment: […] activity against Entamoeba histolytica; format: functional, organism-based
[8] = Selectivity index, ratio of IC50 for Trypanosoma brucei rhodesiense to IC50 for human KB cells; format: toxicity; details: read-out: Ratio IC50

Row | Compound | IC50 (Leishmania donovani [2]) [µg/mL] | IC50 [3] [µg/mL] | IC50 (Trypanosoma cruzi [4]) [µg/mL] | other results
1 | COc1cc([C@@H]2c3cc4c(cc3[C@H](O)[C@H]3COC(=O)[C@H]23)OCO4)cc(OC)c1OC [PODOFILOX] | – | – | – | IC50 (KB): 0.002 µg/mL (≈ 0.00483 µM); IC50 (L6): 0.005 µg/mL (≈ 0.0121 µM)
2 | COc1c2c(cc3c1C(=O)O[C@H]1[C@@H]3[C@H]3C(=C[C@@H]1O)CCN3C)OCO2 [CANDIMINE] | – | – | – | Activity (Trichomonas vaginalis [1]): 60%
3 | CCCCCCCCCCCCCCCCOP(=O)([O-])OCC[N+](C)(C)C [MILTEFOSINE] | 0.2 (≈ 0.491 µM) | 0.04 (≈ 0.0981 µM) | 0.36 (≈ 0.883 µM) | –
4 | Nc1nc(N)nc(Nc2ccc([As]3SCC(CO)S3)cc2)n1 (configuration not stated) [MELARSOPROL] | 0.2 | 0.04 | 0.36 | IC50 (Trypanosoma cruzi [5]): 5.42 µg/mL; IC50 (Leishmania donovani [6]): 33.3 µg/mL
5 | O=C(O)c1cccnc1 [NIACIN] | 57.4 (≈ 466 µM) | 41.2 (≈ 335 µM) | > 90 | –
6 | COc1c2c(cc3c1OCO3)[C@@]13CCN(C2)[C@@H]1CC=C[C@H]3O [BUPHANAMINE] | > 100 | 28.2 (≈ 93.6 µM) | 62.9 (≈ 209 µM) | –
7 | O[C@H]1CC[C@H]2[N@@]3CC[C@@]2(c2cc4c(cc2C3)OCO4)[C@H]1O | – | 11.1 (≈ 38.3 µM) | – | –
8 | O[C@@H]1CC[C@H]2N3CC[C@@]2(c2cc4c(cc2C3)OCO4)[C@@H]1O | – | 31.9 (≈ 110 µM) | – | –
9 | O[C@H]1[C@H]2C(=CC[C@@H]1O)[C@H]1C[N@]2Cc2cc3c(cc21)OCO3 | > 30 | 9.6 (≈ 33.4 µM) | 54.6 (≈ 190 µM) | –
10 | O=C(O[C@H]1[C@H]2c3cc4c(cc3CN3CCC(=C[C@@H]1OC(=O)c1ccccc1)[C@H]23)OCO4)c1ccccc1 | – | – | – | Activity (Trichomonas vaginalis [1]): 84%
11 | CC(=O)O[C@H]1C=C[C@@]23c4cc5c(cc4C[N@@](C[C@@H]2O)[C@H]3C1)OCO5 | 17.9 (≈ 54.3 µM) | 1.51 (≈ 4.58 µM) | 8.3 (≈ 25.2 µM) | –
12 | COc1cc2c(cc1OC)[C@@]13C=CC(=O)C[C@@H]1[N@](CC3)C2 | – | 2.8 (≈ 9.81 µM) | – | –
13 | COc1cc2c(cc1OC)[C@@H]1[C@H](O)[C@@H](OC)[C@H](O)C3=CCN(C2)[C@H]31 | – | 3.1 (≈ 9.3 µM) | – | –
14 | COc1ccc(CNCCc2ccc(O)cc2)cc1O | 52.9 (≈ 194 µM) | 28.6 (≈ 105 µM) | 58.7 (≈ 215 µM) | –
15 | COc1c2c(cc3c1OCO3)[C@@]13CC[N@@](C2)[C@@H]1C[C@@H](OC)[C@@H]1O[C@@H]13 | > 100 | 15 (≈ 45.4 µM) | 56 (≈ 169 µM) | –
16 | CO[C@@H]1C=C[C@@]23c4cc5c(cc4CO[C@]2(O)CN(C)[C@H]3C1)OCO5 [TAZETTINE] | – | – | – | Activity (Trichomonas vaginalis [7]): 15%
17 | CCCCCCCCCCCC(=O)O[C@H]1C=C2CCN3Cc4cc5c(cc4[C@H]([C@@H]1O)[C@@H]23)OCO5 | – | – | – | Activity (Trichomonas vaginalis [1]): 97%
18 | COc1cc2c(cc1O)CN1CC[C@@]23C=CC(O)C[C@H]13 (some centres not stated) | > 90 | 61.5 (≈ 225 µM) | > 90 | –
19 | O[C@H]1C=C[C@@]23CCN(Cc4cc5c(cc42)OCO5)[C@@H]3C1 [CRININE] | – | 18.9 (≈ 69.8 µM) | – | –
20 | CC(=O)O[C@H]1C=C[C@@]23CCN(C)Cc4ccc(O)c(c42)O[C@H]3C1 | – | 1.1 (≈ 3.49 µM) | 2.3 (≈ 7.29 µM) | –
21 | O=c1c2cc3c(cc2c2cccc4ccn1c42)OCO3 | – | 8.4 (≈ 31.9 µM) | 90 (≈ 342 µM) | –
22 | COc1ccc2c3c1O[C@H]1C[C@H](O)C=C[C@@]31CCN(C)C2 | > 30 | – | > 30 | –
23 | CO[C@H]1C=C[C@@]23c4cc5c(cc4CN(C[C@@H]2O)[C@H]3C1)OCO5 | – | – | – | IC50 (Entamoeba histolytica): 0.53 µg/mL (≈ 1.76 µM)
24 | CC(=O)O[C@@H]1CC=C2CCN3Cc4cc5c(cc4[C@H]1[C@@H]23)OCO5 [ACETYLCARANINE] | > 100 | 1.97 (≈ 6.29 µM) | 35.9 (≈ 115 µM) | –
25 | O=c1[nH]c2c(O)cccc2c2cc3c(cc12)OCO3 | > 90 | 5.99 (≈ 23.5 µM) | 52.7 (≈ 207 µM) | –
26 | CN1CC[C@]23c4cc5c(cc4[C@@H]4C[C@H]2[C@H](CC[C@H]13)O4)OCO5 | > 100 | 19.2 (≈ 64.1 µM) | 54 (≈ 180 µM) | –
27 | COc1ccc2c3c1O[C@H]1C[C@@H](O)C=C[C@@]31CCN(C)C2 [GALANTAMINE] | > 30 | > 30 | > 30 | –

Row | Compound | IC50 (Leishmania donovani [2]) [µg/mL] | IC50 [3] [µg/mL] | IC50 (Trypanosoma cruzi [4]) [µg/mL] | other results
28 | COc1cc2c(cc1O)CN1CCC3=CC[C@@H](O)[C@@H]2[C@@H]31 [NORPLUVINE] | – | 90 (≈ 329 µM) | – | –
29 | O=C(O[C@H]1C=C2CCN3Cc4cc5c(cc4[C@H]([C@@H]1O)[C@@H]23)OCO5)c1ccccc1 | – | – | – | Activity (Trichomonas vaginalis [1]): 35%
30 | CO[C@@H]1C=C[C@@]23c4cc5c(cc4CN(C[C@@H]2O)[C@H]3C1)OCO5 [(+)-HAEMANTHAMINE] | 1.95 to 30 (≈ 6.47 to 99.6 µM) | 0.49 to 3.35 (≈ 1.63 to 11.1 µM) | 1.8 to 30 (≈ 5.97 to 99.6 µM) | IC50 (Entamoeba histolytica): 0.75 µg/mL (≈ 2.49 µM)
31 | CO[C@@H]1C=C[C@@]23c4cc5c(cc4[C@H](O)N(C[C@@H]2O)[C@H]3C1)OCO5 | – | 1.1 (≈ 3.47 µM) | 1.38 to 1.4 (≈ 4.35 to 4.41 µM) | –
32 | COc1cc(C=O)c(-c2cccc3c2N(C)CC3)cc1OC | – | – | – | Activity (Trichomonas vaginalis [7]): 28%; Activity (Trichomonas vaginalis [1]): 28%
33 | COc1cc2c(cc1OC)[C@@H]1[C@H](O)[C@@H](OC)C=C3CCN(C2)[C@H]31 [GALANTHINE] | – | 3.1 (≈ 9.77 µM) | – | –
34 | CC(=O)O[C@H]1[C@H]2c3cc4c(cc3CN3CCC(=C[C@@H]1OC(C)=O)[C@H]23)OCO4 | – | 1 to 125 (≈ 2.69 to 337 µM) | 1 to 8.4 (≈ 2.69 to 22.6 µM) | Activity (Trichomonas vaginalis [1]): 19%
35 | CO[C@H]1C=C2[C@H]3CN(Cc4cc5c(cc43)OCO5)[C@H]2C[C@@H]1O [MONTANINE] | – | – | – | Activity (Trichomonas vaginalis [7]): 35%
36 | O=C(O[C@H]1C=C2CCN3Cc4cc5c(cc4[C@H]([C@@H]1O)[C@@H]23)OCO5)c1ccc([N+](=O)[O-])cc1 | – | – | – | Activity (Trichomonas vaginalis [1]): 79%
37 | [O-][N@@+]12Cc3cc4c(cc3[C@]3(C=C[C@@H](O)C[C@@H]31)[C@@H](O)C2)OCO4 | > 90 | > 90 | > 90 | –
38 | COc1cc2c(cc1OC)[C@@H]1[C@H](OC(C)=O)[C@@H](O)C[C@H]3CC[N+]([O-])(C2)[C@H]31 (some centres not stated) | > 90 | 73.4 (≈ 202 µM) | > 90 | selectivity ratio [8]: > 16; IC50 (KB): > 50 µg/mL; IC50 (L6): > 90 µg/mL
39 | c1c2c(cc3c1[C@@H]1C[C@H]4[C@H](CC[C@@H]5NCC[C@@]354)O1)OCO2 | – | 18.7 (≈ 65.5 µM) | – | –
40 | Cc1ncc([N+](=O)[O-])n1CC(O)CCl (configuration not stated) [ORNIDAZOLE] | – | – | – | IC50 (Entamoeba histolytica): 0.28 µg/mL (≈ 1.27 µM)
41 | COC1C=C[C@@]23CCN(Cc4cc5c(cc42)OCO5)[C@@H]3C1 (some centres not stated) | > 100 | 16.5 (≈ 57.8 µM) | 55.5 (≈ 195 µM) | –
42 | CN1CCC2=C[C@H](O)[C@H]3OC(=O)c4cc5c(cc4[C@H]3[C@@H]21)OCO5 | – | – | – | Activity (Trichomonas vaginalis [7]): 13%
43 | COc1c2c(cc3c1OCO3)[C@]13CC[N@](C2)[C@H]1CC=C[C@@H]3O | > 30 | 28.8 (≈ 95.6 µM) | > 30 | –
44 | CN1CCc2cc3c(cc2C(=O)Cc2ccc4c(c2C1)OCO4)OCO3 | > 90 | 8.71 (≈ 24.6 µM) | 46.3 (≈ 131 µM) | –
45 | [O-]c1cc2c3c(c1)c1cc4c(cc1c[n+]3CC2)OCO4 [UNGEREMINE] | > 30 | 0.97 (≈ 3.66 µM) | 0.85 (≈ 3.2 µM) | –
46 | CN1CC[C@@]23C=C[C@H](O)C[C@@H]2Oc2c(O)ccc(c23)C1 [SANGUININE] | > 30 | 22.5 (≈ 82.3 µM) | > 30 | –
47 | O[C@H]1C=C2[C@H]3CN(Cc4cc5c(cc43)OCO5)[C@H]2C[C@@H]1O | > 30 | 0.7 (≈ 2.44 µM) | 7.1 (≈ 24.7 µM) | –
48 | CO[C@@H]1C=C[C@@]23c4cc5c(cc4[C@H](O)O[C@H]2CN(C)[C@H]3C1)OCO5 | – | – | – | Activity (Trichomonas vaginalis [7]): 38%
49 | COc1cc2c(cc1O)[C@@H]1[C@H](O)[C@@H](O)C=C3CCN(C2)[C@H]31 [PSEUDOLYCORINE] | > 30 | – | > 30 | –
50 | COc1cc2c[n+]3c4c(cc([O-])cc4c2cc1O)CC3 | > 30 | > 30 | > 30 | –
51 | c1cc2c(c3c1C[C@H]1c4cc5c(cc4CCN1C3)OCO5)OCO2 [STYLOPINE] | 31.2 (≈ 96.4 µM) | 10.9 (≈ 33.7 µM) | 17.5 (≈ 54.2 µM) | –
52 | COc1cc2c(cc1O)C[N@@]1C[C@H](O)[C@@]23C=C[C@@H](OC)C[C@H]13 | > 90 | 10.2 (≈ 33.7 µM) | 88.4 (≈ 291 µM) | –
53 | O[C@H]1[C@H]2c3cc4c(cc3CN3CCC(=C[C@@H]1O)[C@H]23)OCO4 [LYCORINE] | – | 3.1 (≈ 10.8 µM) | – | Activity (Trichomonas vaginalis [7]): 20%; Activity (Trichomonas vaginalis [1]): 40%; IC50 (Entamoeba histolytica): 0.23 µg/mL (≈ 0.801 µM)
54 | O=C(O[C@H]1[C@H]2c3cc4c(cc3CN3CCC(=C[C@@H]1O)[C@H]23)OCO4)c1ccc([N+](=O)[O-])cc1 | – | – | – | Activity (Trichomonas vaginalis [1]): 58%

Source: ChEMBL document CHEMBL4373731, “Antiprotozoal alkaloid principles of the plant family Amaryllidaceae” (Bioorg Med Chem Lett, 2019)
